These results are taken from patent US20140315889A1, “HYDROXAMATE DERIVATIVES FOR HDAC INHIBITOR, AND THE PHARMACEUTICAL COMPOSITION COMPRISING THEREOF” (CHONG KUN DANG PHARMACEUTICAL CORP., priority 2011, published 2014).

For data set [1], the system named is collagen-induced arthritis model. Description: Effectiveness of compound 87 in a collagen-induced arthritis model. It is filed as in vivo, DBA1J mice. Particulars: for clinical score decreased, compared with the positive control group: vs ITF2357 50 mg/kg group. From the text:
7-week aged male DBA1J mice were used in the experiment. The animal facility was kept at constant temperature and constant humidity with a 12-hr dark/12-hr light cycle, and the animals were allowed to access food and water ad libitum. The animals were acclimated to the cage for 7 days.
Each arthritis-onset animals were selected and then promptly used in the experiments. The experimental animal groups consist of: • A. two vehicle-control groups administered with only vehicle via s.c. (subcutaneous injection) and p.o. (per oral), • B. a positive control group administered with ITF2357 of 50 mg/kg, and • C. two compound test groups administered with compound 87 in each doses of 10 and 50 mg/kg.
A solution of ITF2357 for administration was prepared using 0.5% methylcellulose as a vehicle. It was administered orally to the animals in a volume of 10 ml/kg once a day for 7 days. A solution of compound 87 for administration was prepared using DMSO as a vehicle just before administration. It was administered in a volume of 2 ml/kg via s.c. once a day for 7 days. Two vehicle-control groups were administered with only vehicle once a day for 7 days via s.c. and p.o. separately.
Bovine type 2 collagen (Chondrex) and complete Freund's adjuvant (Chondrex) are mixed in 1:1 to become an emulsion. Each 0.1 ml of the obtained emulsion was injected to the tail of each mouse intradermally. After 21 days, Bovine type 2 collagen (Chondrex) and incomplete Freund's adjuvant (Chondrex) are mixed in 1:1 to become an emulsion. Each 0.1 ml of the obtained emulsion was injected to the hips of each mouse intradermally for boosting. After boosting, feet of the mice were observed once a day. When clinical score was occurred, the drug administration and its evaluation were started. The criterion of clinical score was according to Experimental Example 3.
All the results were expressed as mean±SEM, and each test group and the control groups (vehicle-control group or positive control group) were compared using one-way ANOVA test (Dunnett's test, p<0.001) with GrapicPad Prism 5.0 program.

Data set [2] has the same test system. Description: Effectiveness of compound 237 in a collagen-induced arthritis model. The data set is classed as in vivo. From the text:
6-week aged male DBA1J mice were used in the experiment. The animal facility was kept at constant temperature and constant humidity with a 12-hr dark/12-hr light cycle, and the animals were allowed to access food and water ad libitum. The animals were acclimated to the cage for 7 days.
Each arthritis-onset animals were selected and then promptly used in the experiments. The experimental animal groups consist of • A. a vehicle-control group administered with only vehicle once a day via s.c. (subcutaneous injection), • B. a compound test group administered with compound 237 in dose of 15 mg/kg q.d. (once a day) via s.c., • C. a compound test group administered with compound 237 in dose of 15 mg/kg b.i.d. (twice a day) via s.c., and • D. a compound test group administered with compound 237 in dose of 30 mg/kg q.d. via s.c.
A solution of compound 237 for administration was prepared using Cremophore EL:Ethanol:Saline=1.5:1.5:7 as a vehicle just before administration. It was administered in a volume of 5 ml/kg via s.c. with each doses of 15 and 30 mg/kg once or twice a day.
Bovine type 2 collagen (Chondrex) and complete Freund's adjuvant (Chondrex) are mixed in 1:1 to become an emulsion. Each 0.1 ml of the obtained emulsion was injected to the tail of each mouse intradermally for immunization. After 21 days, Bovine type 2 collagen (Chondrex) and incomplete Freund's adjuvant (Chondrex) are mixed in 1:1 to become an emulsion. Each 0.1 ml of the obtained emulsion was injected to the hips of each mouse intradermally for boosting. After boosting, the mice were divided in each groups, and administered with compound 237 or only vehicle according to the administration schedule. Their body weights and clinical scores were evaluated three times per week.
From each four feet of a mouse, the clinical scores were evaluated according to the following criterion and added together thereby to determine the clinical score of the mouse (normal, 0; and the most severe edema, 16).
All the results were expressed as mean±SEM, and the experimented groups were compared with each other using one-way ANOVA test (Dunnett's test, p<0.001).

On to `O=C(NO)c1ccc(Cn2c3c(c4ccccc42)C(=O)C(CN2CCOCC2)CC3)cc1` (stereo not shown) [Compound 87, N-hydroxy-4-((3-(morpholinomethyl)-4-oxo-1,2,3,4-tetrahydrocarbazol-9-yl)methyl)benzamide], for which the “clinical score decreased, compared with the positive control group” value was 44% in data set [1] (10 mg/kg s.c. once a day for 7 days) and 68% in data set [1] (50 mpk s.c. once a day for 7 days). The body-weight loss entry in data set [1] (collagen-induced arthritis mice, 10 and 50 mg/kg s.c.) was “no observation of body-weight loss”.
Consider `CC1(C)CC(=O)c2c(C(F)(F)F)nn(Cc3ccc(C(=O)NO)cc3)c2C1` [Compound 237, 4-((6,6-dimethyl-4-oxo-3-(trifluoromethyl)-4,5,6,7-tetrahydro-1H-indazol-1-yl)methyl)-N-hydroxybenzamide], for which the “clinical score decreased, compared with the control group (only vehicle)” value in data set [2] (15 mpk b.i.d. s.c.) came out at 53%; in data set [2] (15 mpk q.d. s.c.), 7%; in data set [2] (30 mpk q.d. s.c.), 65%. For the same compound, the “body-weight loss or toxic side effect” value in data set [2] (during the administration of drug, 15 and 30 mg/kg s.c.) is reported as “body-weight loss or toxic side effect was not observed”.
